From PMC11063076, “Structural investigation of Trypanosoma cruzi Akt-like kinase as drug target against Chagas disease” (Scientific Reports, 2024)

Molecular target: T1, TcAkt (T. cruzi Akt-like kinase), PH domain (Trypanosoma cruzi, UniProt Q4D6D3)
T1 construct: gene Tc00.1047053509047.110; TcAkt-PH (aa 1–105), C-terminal 6xHis-tag
Experiment: NMR 1H-15N HSQC chemical shift perturbation titration; hetNOE
Format: binding

T1 sequence (Q4D6D3 entry or part of it): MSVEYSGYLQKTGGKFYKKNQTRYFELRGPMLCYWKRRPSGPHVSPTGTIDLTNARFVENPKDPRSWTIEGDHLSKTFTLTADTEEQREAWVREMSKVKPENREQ

Work on `O=P(O)(O)O[C@H]1[C@H](O)[C@@H](OP(=O)(O)O)[C@H](OP(=O)(O)O)[C@@H](OP(=O)(O)O)[C@H]1O` [Ins(1,3,4,5)P4] yielded a Kd of 40 ± 14 µM.
